From patent publication US8969573B2, “Compounds for the inhibition of cellular proliferation” (President and Fellows of Harvard College, priority 2010, dated 2015)
Read-outs that look alike come from different tables or passages of the source.

How the values were obtained:
eIF4E/eIF4G interaction = eIF4E/eIF4G interaction (Homo sapiens, UniProt P06730); experiment: Fluorescent polarization assay; format: binding; conditions: FITC eIF4G peptide and recombinant eIF4E, ratio to Z (4EGI-1 = 1)
Protocol: The difference between the two measurement yields net polarization which is considered full signal of the assay (100% control). […] The activity of compound at each concentration is determined by comparing the fluorescent polarization (FP) signal in the presence of compound to the control (no compound) value. The percent inhibition is =100-((FP compound/FP control)*100).

[1] = tested on: CRL2351 human breast cancer; experiment: SRB assay (inhibition of cell proliferation); format: cell-based; conditions: CRL2351 human breast cancer cells
Source text: (§1) A sulfur rhodamine B (SRB) assay was used to determine the extent of inhibition of cell proliferation as a measure of the anti-cancer activity of compounds of the present disclosure. The reagent SRB binds to cellular proteins and absorbs light proportionally to the cellular protein content, which is a surrogate marker for the number of cells. According to aspects of the present disclosure, the assay can be used to with any cancer cell line including breast cancer cell lines, prostate cancer cell lines, melanoma cell lines, lung cancer cell lines or any other cell lines of the cancers described herein.
(§2) The following protocol was used to determine the growth characteristics of certain cell lines CRL2351 human breast cancer and CRL2813 human melanoma from which cell lines having doubling times less than 48 hours were selected for growth inhibition experiments. […] The following materials were used in addition to the cancel cell lines: complete (5% fetal calf serum added) tissue culture media, 96-well tissue culture plates, Sulforhodamine B dye (SRB, 0.57% w/w), […] (TCA, 10%), acetic acid glacial (1%) and 10 mM Tris base. The cells were prepared and plated. Cancer cells were grown to 80% confluency in an incubator. The cells were trypsinized per standard protocol or as needed for each cell line. The trypsin was neutralized, cells dissociated and counted. Each cell line was plated at a density of 500, 1000 and 3000 cells per well (six wells each) in five separate plates. The cells were then returned to the incubator. One plate was then removed each day starting day one after plating. 100 μl of 10% TCA was then added and the cells were fixed at 4° C. until all the cells were fixed. […] The cell growth for vehicle treatment is considered to be 100%. The optical density was then measured and plotted for each starting cell number and cell line against time. The percent cell growth inhibition was calculated as 100 minus the % of control cell growth. The % of control cell growth=((mean OD sample−Mean OD day 0)/(mean OD vehicle−Mean OD day 0))*100.

CRL2813 human melanoma = experiment: SRB assay (inhibition of cell proliferation); format: cell-based
Source text: as §1, §2

[2] = Homo sapiens, summary table, read-out: IC50 [μM} CRL2351
[3] = Homo sapiens, CRL2813, CRL2813 human melanoma cells, summary table, read-out: IC50 [μM} CRL2813
[4] = summary table, read-out: IC50 [μM} CRL2351
[5] = CRL2813 human melanoma cells, summary table, read-out: IC50 [μM} CRL2813
[6] = Homo sapiens, Tables 1, 4, 5, read-out: SRB-IC50 (μM) 2351
[7] = Homo sapiens, CRL2813, CRL2813 human melanoma cells, Tables 1, 4, 5, read-out: SRB-IC50 (μM) 2813

Sequence of eIF4E/eIF4G interaction (P06730 whole entry): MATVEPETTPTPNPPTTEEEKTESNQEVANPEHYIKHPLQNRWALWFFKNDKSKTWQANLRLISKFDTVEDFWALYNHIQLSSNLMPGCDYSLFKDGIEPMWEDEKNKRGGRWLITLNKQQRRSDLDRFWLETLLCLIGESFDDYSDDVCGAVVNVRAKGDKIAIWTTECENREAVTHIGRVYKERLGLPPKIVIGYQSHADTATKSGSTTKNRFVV

Fp (ratio to Z) (eIF4E/eIF4G interaction)	IC50 [1, 2] [µM]	IC50 (CRL2813 human melanoma; [3]) [µM]	IC50 [1, 4] [µM]	IC50 (CRL2813 human melanoma; [5]) [µM]	IC50 [1, 6] [µM]	IC50 (CRL2813 human melanoma; [7]) [µM]	IC50 (CRL2813 human melanoma; CRL2813 human melanoma cells, Tables 1, 4, 5, read-out: SRB-IC50 (μM) 2813) [µM]	Structure (SMILES)
0.86	7	11	–	–	–	–	–	COc1ccc(-c2csc(NN=C(Cc3ccccc3[N+](=O)[O-])C(=O)O)n2)cc1 [EK-B2]
0.69	9	> 20	–	–	–	–	–	O=C(O)C(Cc1ccccc1[N+](=O)[O-])=NNc1nc(-c2cc(Br)cc(Br)c2O)cs1 [KH-102BII]
0.69	–	–	18	20.5	–	–	–	O=C(O)C(Cc1ccccc1[N+](=O)[O-])=NNc1nc(-c2cc(Br)cc(Br)c2O)cs1 [KH-102BIIs]
1.05	12	12.6	–	–	11	12.5	–	[N-]=[N+]=NCCCCOc1ccc(-c2csc(NN=C(Cc3ccccc3[N+](=O)[O-])C(=O)O)n2)cc1 [KH-113s]
0.80	5	9	–	–	5	9	–	[N-]=[N+]=NCCOc1ccc(-c2csc(N/N=C(/Cc3ccccc3[N+](=O)[O-])C(=O)O)n2)cc1 [KH-166]
1.04	–	18.6	> 20	–	–	18.6	–	[N-]=[N+]=NCCCOc1ccc(-c2csc(N/N=C(/Cc3ccccc3[N+](=O)[O-])C(=O)O)n2)cc1 [KH-167f]
0.91	–	–	2.7	12	2.8	–	11.9	[N-]=[N+]=NCCCOc1ccc(-c2csc(N/N=C(/Cc3ccccc3[N+](=O)[O-])C(=O)O)n2)cc1 [KH-167s]
1.29	> 20	16	–	–	–	16	–	[N-]=[N+]=NCCCCCOc1ccc(-c2csc(N/N=C(/Cc3ccccc3[N+](=O)[O-])C(=O)O)n2)cc1 [KH-168S]
0.92	0.8	14.5	–	–	0.8	16.5	–	[N-]=[N+]=NCCCOc1ccccc1-c1csc(N/N=C(/Cc2ccccc2[N+](=O)[O-])C(=O)O)n1 [KH-170]
0.82	1.2	11	–	–	1.3	11	–	[N-]=[N+]=NCCOc1cccc(-c2csc(N/N=C(/Cc3ccccc3[N+](=O)[O-])C(=O)O)n2)c1 [KH-174]
0.67	–	–	0.6	1	–	–	–	COc1ccc(-c2nc(NN=C(Cc3ccccc3[N+](=O)[O-])C(=O)O)sc2-c2ccc(OC)cc2)cc1 [KY-323A]
0.6	–	–	20 ± 3.7	7 ± 2.6	–	–	–	COc1ccc(-c2nc(NN=C(Cc3ccccc3[N+](=O)[O-])C(=O)O)sc2-c2ccc(OC)cc2)cc1 [KY-323B]
1.2	4 ± 0.51	5 ± 1.74	–	–	–	–	–	COc1ccc(-c2nc(NN=C(Cc3ccccc3[N+](=O)[O-])C(=O)O)sc2-c2ccc(OC)c(OC)c2)cc1 [KY-341PRI]
1	> 20	> 20	–	–	–	–	–	COc1ccc(-c2sc(NN=C(Cc3ccccc3[N+](=O)[O-])C(=O)O)nc2-c2ccc(OC)c(OC)c2)cc1 [KY-343PR]
1	> 20	> 20	–	–	–	–	–	O=C(O)C(Cc1ccccc1[N+](=O)[O-])=NNc1nc(-c2ccccc2)c(-c2ccc(Cl)cc2)s1 [KY-349PR]
1.1	2.5	3	–	–	–	–	–	Cc1ccc(-c2nc(NN=C(Cc3ccccc3[N+](=O)[O-])C(=O)O)sc2-c2ccc(Cl)cc2)cc1 [KY-351PR]
0.7	> 20	> 20	–	–	–	–	–	COc1ccc(-c2nc(NN=C(Cc3ccccc3[N+](=O)[O-])C(=O)O)sc2-c2ccc(Cl)cc2)cc1OC [KY-353PR]
1.1	> 20	3 ± 0.18	–	–	–	–	–	COc1ccc(-c2nc(NN=C(Cc3ccccc3[N+](=O)[O-])C(=O)O)sc2-c2ccc(Cl)cc2)cc1 [KY-355PR]

Fp (ratio to Z) (eIF4E/eIF4G interaction)	IC50 [1, 2] [µM]	IC50 (CRL2813 human melanoma; [3]) [µM]	IC50 [1, 4] [µM]	IC50 (CRL2813 human melanoma; [5]) [µM]	IC50 [1, 6] [µM]	IC50 (CRL2813 human melanoma; [7]) [µM]	IC50 (CRL2813 human melanoma; CRL2813 human melanoma cells, Tables 1, 4, 5, read-out: SRB-IC50 (μM) 2813) [µM]	Structure (SMILES)
0.85	3.2	3.3	–	–	–	–	–	Cc1ccc(-c2nc(NN=C(Cc3ccccc3[N+](=O)[O-])C(=O)O)sc2-c2ccc(Cl)c(Cl)c2)cc1 [KY-365A22-B3]
0.75	0.6 ± 0.02	2 ± 0.19	–	–	–	–	–	COc1cc(-c2nc(NN=C(Cc3ccccc3[N+](=O)[O-])C(=O)O)sc2-c2ccc(Cl)c(Cl)c2)cc(OC)c1OC [KY-369S]
2.4	16 ± 4.9	3 ± 0.5	–	–	–	–	–	COc1ccc(-c2nc(NN=C(Cc3ccccc3[N+](=O)[O-])C(=O)O)sc2-c2ccc(Cl)c(Cl)c2)cc1 [KY-371A11-B1]
1.2	1.2 ± 0.04	3 ± 0.2	–	–	–	–	–	COc1ccc(-c2nc(NN=C(Cc3ccccc3[N+](=O)[O-])C(=O)O)sc2-c2ccc(N=[N+]=[N-])cc2)cc1 [KY-379S]
0.5	–	–	2.8 ± 0.73	3 ± 0.56	–	–	–	COc1ccc(-c2nc(N/N=C(\Cc3ccccc3[N+](=O)[O-])C(=O)O)sc2-c2ccc(-c3ccccc3)cc2)cc1 [KY-435-F]
2	–	–	< 0.54	< 0.54	–	–	–	COc1ccc(-c2nc(N/N=C(\Cc3ccccc3[N+](=O)[O-])C(=O)O)sc2-c2ccc(-c3ccccc3)cc2)cc1 [KY-435-S]
1.2	> 20	15 ± 1.12	–	–	–	–	–	COc1ccc(-c2nc(NN=C(Cc3ccccc3[N+](=O)[O-])C(=O)O)sc2-c2ccc(-n3cc(-c4cccc(O)c4)nn3)cc2)cc1 [KY-441]
1	> 20	14 ± 0.73	–	–	–	–	–	COCc1cn(-c2ccc(-c3sc(NN=C(Cc4ccccc4[N+](=O)[O-])C(=O)O)nc3-c3ccc(OC)cc3)cc2)nn1 [KY-443A16-19]
1	> 20	13 ± 0.82	–	–	–	–	–	COc1ccc(-c2cn(-c3ccc(-c4sc(NN=C(Cc5ccccc5[N+](=O)[O-])C(=O)O)nc4-c4ccc(OC)cc4)cc3)nn2)cc1 [KY-445]
1.5	> 20	17 ± 1.29	–	–	–	–	–	COc1ccc(-c2nc(NN=C(Cc3ccccc3[N+](=O)[O-])C(=O)O)sc2-c2ccc(-n3cc(CCCO)nn3)cc2)cc1 [KY-447]
2.5	17	16 ± 1.8	–	–	–	–	–	COc1ccc(-c2nc(NN=C(Cc3ccccc3[N+](=O)[O-])C(=O)O)sc2-c2ccc(-n3cc(-c4ccc(N)cc4)nn3)cc2)cc1 [KY-449]
0.7	> 20	> 20	–	–	–	–	–	COc1ccc(-c2nc(N/N=C(\Cc3ccccc3[N+](=O)[O-])C(=O)O)sc2-c2cccc(-n3cc(CO)nn3)c2)cc1 [KY-467F]
0.85	> 20	> 20	–	–	–	–	–	COc1ccc(-c2nc(N/N=C(/Cc3ccccc3[N+](=O)[O-])C(=O)O)sc2-c2cccc(-n3cc(CO)nn3)c2)cc1 [KY-467S]
1	–	–	2	2	–	–	–	CCOc1ccc(-c2nc(N/N=C(/Cc3ccccc3[N+](=O)[O-])C(=O)O)sc2-c2ccc(OC)cc2)cc1 [KY-576F]
0.82	–	–	> 20	12.8	–	–	–	CCOc1ccc(-c2nc(N/N=C(/Cc3ccccc3[N+](=O)[O-])C(=O)O)sc2-c2ccc(OC)cc2)cc1 [KY-576S]
1	–	–	11.7	3.5	–	–	–	COc1ccc(-c2sc(N/N=C(/Cc3ccccc3[N+](=O)[O-])C(=O)O)nc2-c2ccc(-c3ccccc3)cc2)cc1 [KY-577S, 2-{[4-Biphenyl-4-yl-5-(4-methoxy-phenyl)-thiazol-2-yl]-hydrazono}-3-(2-nitro-phenyl)-propionic acid]
1	–	–	0.7	0.1	–	–	–	COc1ccc(-c2sc(N/N=C(/Cc3ccccc3[N+](=O)[O-])C(=O)O)nc2-c2ccc(-c3ccccc3)cc2)cc1 [KY-577SF, 2-{[4-Biphenyl-4-yl-5-(4-methoxy-phenyl)-thiazol-2-yl]-hydrazono}-3-(2-nitro-phenyl)-propionic acid]
0.9	13.2	11.6	–	–	–	–	–	CCCc1sc(N/N=C(/Cc2ccccc2[N+](=O)[O-])C(=O)O)nc1-c1ccc(OC)cc1 [KY-582S]
